From patent publication US9682985B2, “(Indazol-4-yl) hexahydropyrrolopyrrolones and methods of use” (AbbVie Inc., priority 2015, dated 2017)

What was measured:
recombinant human Nav1.7 = molecular target: T1, recombinant human Nav1.7 (Homo sapiens, UniProt Q15858); assay: FRET-based membrane potential assay, Nav1.7; assay type: cell-based; conditions: HEK293 cells expressing recombinant human Nav1.7; veratridine + scorpion venom depolarization
T1 construct: expressed in transfected cells; host or cells: HEK293
T1 sequence (Q15858 whole entry): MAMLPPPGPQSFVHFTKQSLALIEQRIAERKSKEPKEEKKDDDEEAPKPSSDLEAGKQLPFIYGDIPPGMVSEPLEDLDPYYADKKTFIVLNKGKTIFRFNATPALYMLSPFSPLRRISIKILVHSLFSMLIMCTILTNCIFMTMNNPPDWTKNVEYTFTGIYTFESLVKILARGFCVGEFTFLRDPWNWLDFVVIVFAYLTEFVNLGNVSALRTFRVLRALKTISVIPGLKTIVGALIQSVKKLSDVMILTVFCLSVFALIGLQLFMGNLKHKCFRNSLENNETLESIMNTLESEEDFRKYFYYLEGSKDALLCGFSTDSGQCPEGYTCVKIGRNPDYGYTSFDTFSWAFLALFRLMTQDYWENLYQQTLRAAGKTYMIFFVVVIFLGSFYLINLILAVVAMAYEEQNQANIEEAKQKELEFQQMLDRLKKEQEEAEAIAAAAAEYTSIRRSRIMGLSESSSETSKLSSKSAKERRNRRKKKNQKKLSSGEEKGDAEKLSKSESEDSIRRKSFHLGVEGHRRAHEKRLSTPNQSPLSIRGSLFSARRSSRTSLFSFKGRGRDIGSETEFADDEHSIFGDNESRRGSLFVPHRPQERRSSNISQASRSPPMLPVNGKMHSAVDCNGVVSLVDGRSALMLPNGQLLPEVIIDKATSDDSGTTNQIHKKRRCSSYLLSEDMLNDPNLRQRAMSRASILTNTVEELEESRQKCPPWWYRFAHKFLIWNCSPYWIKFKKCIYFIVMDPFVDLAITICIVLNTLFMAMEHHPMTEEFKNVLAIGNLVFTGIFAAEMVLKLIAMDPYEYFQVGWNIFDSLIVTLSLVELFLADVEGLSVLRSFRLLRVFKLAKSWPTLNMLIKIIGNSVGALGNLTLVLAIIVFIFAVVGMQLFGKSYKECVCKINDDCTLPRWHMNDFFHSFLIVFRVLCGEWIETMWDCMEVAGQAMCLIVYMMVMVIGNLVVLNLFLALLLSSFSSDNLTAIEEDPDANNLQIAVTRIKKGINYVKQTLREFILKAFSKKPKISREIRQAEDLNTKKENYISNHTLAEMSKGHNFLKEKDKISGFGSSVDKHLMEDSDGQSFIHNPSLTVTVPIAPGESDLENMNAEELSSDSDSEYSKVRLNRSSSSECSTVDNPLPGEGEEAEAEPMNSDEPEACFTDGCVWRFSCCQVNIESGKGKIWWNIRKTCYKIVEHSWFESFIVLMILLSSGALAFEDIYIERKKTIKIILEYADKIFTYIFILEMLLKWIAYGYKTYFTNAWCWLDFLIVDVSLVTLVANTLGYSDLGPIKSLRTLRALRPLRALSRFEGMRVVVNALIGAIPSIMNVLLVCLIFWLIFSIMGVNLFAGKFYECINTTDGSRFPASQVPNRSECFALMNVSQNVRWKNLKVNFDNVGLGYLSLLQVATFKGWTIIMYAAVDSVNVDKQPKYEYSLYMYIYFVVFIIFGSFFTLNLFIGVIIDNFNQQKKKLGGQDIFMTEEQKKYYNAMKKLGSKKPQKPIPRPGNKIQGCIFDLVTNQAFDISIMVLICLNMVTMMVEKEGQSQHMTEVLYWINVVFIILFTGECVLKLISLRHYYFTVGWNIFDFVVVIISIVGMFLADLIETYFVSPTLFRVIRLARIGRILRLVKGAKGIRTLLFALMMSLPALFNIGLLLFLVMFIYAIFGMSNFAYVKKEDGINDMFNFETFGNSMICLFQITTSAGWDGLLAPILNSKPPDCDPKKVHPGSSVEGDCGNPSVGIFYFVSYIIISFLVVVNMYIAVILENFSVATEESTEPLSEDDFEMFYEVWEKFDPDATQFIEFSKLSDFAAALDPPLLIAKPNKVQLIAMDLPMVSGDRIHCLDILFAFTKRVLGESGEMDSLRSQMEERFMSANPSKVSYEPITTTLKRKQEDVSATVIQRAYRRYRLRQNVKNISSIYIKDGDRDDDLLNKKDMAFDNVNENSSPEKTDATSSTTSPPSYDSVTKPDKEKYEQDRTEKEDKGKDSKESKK

hERG channel (Kv11.1) = molecular target: T2, hERG channel (Kv11.1) (Homo sapiens, UniProt Q12809); assay: hERG QPatch screening protocol (hERG current block); assay type: cell-based; conditions: HEK-293 cells stably transfected with hERG; tail current; room temperature
T2 construct: W. January (Wisconsin Alumni Research Foundation); host or cells: HEK-293
T2 sequence (Q12809 whole entry): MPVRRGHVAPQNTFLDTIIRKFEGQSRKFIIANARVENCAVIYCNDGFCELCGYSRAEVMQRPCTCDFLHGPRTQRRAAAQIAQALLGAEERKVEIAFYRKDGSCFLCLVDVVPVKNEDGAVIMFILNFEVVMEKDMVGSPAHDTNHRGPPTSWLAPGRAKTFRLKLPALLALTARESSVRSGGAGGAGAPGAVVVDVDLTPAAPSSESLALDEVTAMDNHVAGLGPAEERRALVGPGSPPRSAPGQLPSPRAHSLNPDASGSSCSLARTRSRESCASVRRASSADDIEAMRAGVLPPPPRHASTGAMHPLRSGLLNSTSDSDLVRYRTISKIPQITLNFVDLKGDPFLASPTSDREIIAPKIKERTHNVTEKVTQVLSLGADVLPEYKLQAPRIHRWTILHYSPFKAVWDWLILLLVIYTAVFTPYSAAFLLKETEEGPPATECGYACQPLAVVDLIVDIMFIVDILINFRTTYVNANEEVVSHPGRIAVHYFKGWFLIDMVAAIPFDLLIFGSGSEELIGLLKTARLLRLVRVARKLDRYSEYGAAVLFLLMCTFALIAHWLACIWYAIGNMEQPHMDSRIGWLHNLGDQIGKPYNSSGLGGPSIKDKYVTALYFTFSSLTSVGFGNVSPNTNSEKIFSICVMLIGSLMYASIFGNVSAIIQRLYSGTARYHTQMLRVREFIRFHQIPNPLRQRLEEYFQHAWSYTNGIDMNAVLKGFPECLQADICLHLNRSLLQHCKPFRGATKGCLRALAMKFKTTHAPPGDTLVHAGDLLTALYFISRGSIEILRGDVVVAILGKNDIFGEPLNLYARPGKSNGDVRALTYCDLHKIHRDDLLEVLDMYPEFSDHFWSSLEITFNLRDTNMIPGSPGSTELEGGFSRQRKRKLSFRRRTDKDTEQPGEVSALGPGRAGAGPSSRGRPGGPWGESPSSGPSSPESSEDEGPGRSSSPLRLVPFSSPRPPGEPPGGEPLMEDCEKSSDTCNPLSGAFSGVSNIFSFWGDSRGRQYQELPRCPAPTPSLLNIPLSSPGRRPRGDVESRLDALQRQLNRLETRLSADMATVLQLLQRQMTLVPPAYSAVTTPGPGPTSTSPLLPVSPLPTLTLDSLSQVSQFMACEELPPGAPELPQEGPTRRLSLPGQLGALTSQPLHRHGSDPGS
Method: hERG QPatch Screening Protocol
Solutions and Compound Plates:
The bath solution contained (in mM): 140 NaCl, 5 KCl, 1 MgCl2, 2 CaCl2, 5 glucose, 20 HEPES, pH=7.4. The internal solution contained (in mM): 125 K-aspartate, 20 KCl, 10 EGTA, 5 MgATP, 1 MgCl2, 5 HEPES, pH=7.3.
Compound plates were prepared with an acoustic liquid handler (Echo® 550, Labcyte), using 384-well source plates and 96-well destination plates. Compounds were delivered to the destination plates as 300 nL spots in half-log increments (1, 3, 10 and 30 mM), dissolved in dimethyl sulfoxide. Plates were solvated with bath solution (300 μL) to final concentrations (1, 3, 10 and 30 μM; 0.1% dimethyl sulfoxide) and added to the QPatch workstation.
Cells and Cell Preparation:
Human embryonic kidney (HEK-293) cells, stably transfected with the hERG channel, were obtained from Dr. C. W. January (Wisconsin Alumni Research Foundation). Cells were initially maintained at 37° C. (5% CO2 atmosphere) in MEM supplemented media. Cells were cryo-preserved in 10% dimethyl sulfoxide, 90% fetal bovine serum at 10 M cells/mL. For electrophysiological studies, cells were thawed, resuspended in media at 1.0-1.5 M cells/mL and placed on the QPatch workstation.
QPatch Electrophysiology Workstation and Experimental Protocol:
Currents were recorded using QPatch HT (Sophion), an automated planar patch-clamp system. The QPatch uses forty-eight amplifiers and a 48-chamber QPlate positioned directly on top of the headstage. To obtain high resistant seals, cells are added to each chamber and allowed to settle for 10 seconds. Negative pressure is then applied to promote cell delivery to the patch chip openings on the chamber bottom. After formation of GΩ seals, negative pressure ramps are applied to obtain intracellular access. Access resistance was initially optimized by additional pressure ramps to assure the intracellular access was adequate for voltage clamp experiments (targeted access resistance <10 MΩ). Whole-cell compensation and series resistance compensation were used at 60% (both predicted and corrected). Experiments using QPatch were conducted at room temperature.
A single application of each concentration was applied to cells. During a five-minute wash-in period, a four-second depolarizing pulse to +20 mV, followed by a five-second repolarizing pulse to −50 mV was applied once every 15 seconds from a holding potential of −80 mV. Cells were exposed to four ascending concentrations of drug in half-log intervals.
Evaluation of hERG Current Block:
hERG tail current was measured as the difference in amplitude between a […] and the end of a five-second test pulse to −50 mV, preceded by a four-second pulse to +20 mV. The hERG IC50 values for compounds were determined from tail current analysis. The IC50 was calculated with a logistic fitting routine using the following equation: y=[(A1−A2)/(1+(x/IC50))^p]A2, where A1=initial×value, A2=final×value and p=power.

[1] = test system: MIA-induced osteoarthritic pain in rats; assay: Osteoarthritic (OA) pain induced by sodium monoiodoacetate (MIA), hind limb grip force; assay type: in vivo; conditions: rat MIA-OA, 20 days after MIA
Method: Osteoarthritic (OA) Pain Induced by Sodium Monoiodoacetate (MIA)
Pain behavior was assessed by measurement of hind limb grip force (GF) in adult osteoarthritic rats. Male Sprague Dawley rats, obtained from Charles River Laboratories, (Wilmington, Mass.), weighing 150-175 g, were injected in the unilateral knee join with a single intra-articular injection of sodium monoiodoacetate (MIA, 3 mg/rat). All rats were tested at 20 days following MIA injection. A behavioral measure of activity-induced pain was carried out. Measurements of the peak hind limb grip force were conducted by recording the maximum compressive force (CFmax), in grams of force, exerted on a hind limb strain gauge setup, in a commercially available grip force measurement system (Columbus Instruments, Columbus, Ohio).
During testing, each rat was gently restrained by grasping it around its rib cage and then allowed to grasp the wire mesh frame attached to the strain gauge. The experimenter then moved the animal in a rostral-to-caudal direction until the grip was broken. Each rat was sequentially tested twice at an approximately 2-3 minute interval to obtain a raw mean grip force (CFmax). This raw mean grip force data was in turn converted to a maximum hindlimb cumulative compressive force (CFmax), as the grams of force/kg of body weight, for each animal.
For evaluating the compound effects, the hind limb grip force was conducted 20 days following the intra-articular injection of MIA. A group of age-matched naïve (not injected with MIA) animals was added as a comparator to the drug-dosed groups. The vehicle control response for each group of MIA-treated animals was defined as the 0% response (0% effect), whereas the naïve control group was defined as the normal response and as 100% effect. The % effect for each dose group was expressed as % return of response to normalcy, compared to the naïve group. A percent maximal possible effect (% MPE) of testing compound was calculated according to the formula: (Treatment CFmax Vehicle CFmax)/Vehicle CFmax]×100). Higher % effect numbers indicate increased relief from the pain in the model, with 100% indicating a return to the level of response seen in normal (non-osteoarthritic) animals. All experiments evaluating drug effects in this model were conducted in a randomized blinded fashion.
The animals were housed in Association for Assessment and Accreditation of Laboratory Animal Care (AAALAC) approved facilities at AbbVie Inc. in a temperature-regulated environment under a controlled 12-hour light-dark cycle, with lights on at 6:00 a.m. Food and water were available ad libitum at all times except during testing. All testing was done following procedures outlined in protocols approved by AbbVie Inc.'s Institutional Animal Care and Use Committee.

[2] = test system: SNL-induced neuropathic pain in rats; assay: Rat spinal nerve ligation (SNL) model of neuropathic pain, paw withdrawal threshold; assay type: in vivo; conditions: SNL dose 100 mg/kg
From the text: Rat Spinal Nerve Ligation (SNL) Model of Neuropathic Pain.
A model of spinal nerve ligation-induced (SNL model) neuropathic pain as originally described by Kim and Chung (Kim, S. H. and J. M. Chung, 1992, Pain 50, 355) was used to test a compound of the present application. The male Sprague Dawley rats (Charles River Laboratories, Wilmington, Mass.), weighing 150-175 g at the time of surgery, were placed under isoflurane anesthesia and a 1.5 cm incision was made dorsal to the lumbosacral plexus. The paraspinal muscles (left side) were separated from the spinous processes, the left L5 and L6 spinal nerves isolated, and tightly ligated with 5-0 silk suture distal to the dorsal root ganglion. Care was taken to avoid ligating the L4 spinal nerve. Following spinal nerve ligation, a minimum of 7 days of recovery and no more than 3 weeks was allowed prior to the behavioral testing (mechanical sensitivity). Only rats with threshold scores ≦4.5 g were considered allodynic and utilized in pharmacological experiments.
Mechanical sensitivity was measured using calibrated von Frey filaments (Stoelting, Wood Dale, Ill.). Paw withdrawal threshold (PWT) was determined by using the Dixon's up-down method (Dixon, W. J., 1980, Ann. Rev. Pharmacol. Toxicol., 20, 441). Rats were placed into inverted individual plastic containers (20×12.5×20 cm) on top of a suspended wire mesh with a 1 cm^2 grid to provide access to the ventral side of the hind paws, and acclimated to the test chambers for 20 minutes. The von Frey filaments were presented perpendicularly to the plantar surface of the selected hind paw, and then held in this position for approximately 8 seconds with enough force to cause a slight bend in the filament. […] A 50% withdrawal threshold was determined using an up-down procedure (Dixon, 1980). A percent maximal possible effect (% MPE) of testing compound was calculated according to the formula: (Log [compound−treated threshold]−Log [vehicle−treated threshold])/(Log [maximum threshold]−Log [vehicle-treated threshold])×100%, where the maximum threshold was equal to 15 g. […]

recombinant human Nav1.8 = molecular target: T3, recombinant human Nav1.8 (Homo sapiens, UniProt Q9Y5Y9); assay: FRET-based membrane potential assay, Nav1.8; assay type: cell-based; conditions: HEK293 cells expressing recombinant human Nav1.8; veratridine + scorpion venom depolarization
T3 construct: host or cells: HEK293
T3 sequence (Q9Y5Y9 whole entry): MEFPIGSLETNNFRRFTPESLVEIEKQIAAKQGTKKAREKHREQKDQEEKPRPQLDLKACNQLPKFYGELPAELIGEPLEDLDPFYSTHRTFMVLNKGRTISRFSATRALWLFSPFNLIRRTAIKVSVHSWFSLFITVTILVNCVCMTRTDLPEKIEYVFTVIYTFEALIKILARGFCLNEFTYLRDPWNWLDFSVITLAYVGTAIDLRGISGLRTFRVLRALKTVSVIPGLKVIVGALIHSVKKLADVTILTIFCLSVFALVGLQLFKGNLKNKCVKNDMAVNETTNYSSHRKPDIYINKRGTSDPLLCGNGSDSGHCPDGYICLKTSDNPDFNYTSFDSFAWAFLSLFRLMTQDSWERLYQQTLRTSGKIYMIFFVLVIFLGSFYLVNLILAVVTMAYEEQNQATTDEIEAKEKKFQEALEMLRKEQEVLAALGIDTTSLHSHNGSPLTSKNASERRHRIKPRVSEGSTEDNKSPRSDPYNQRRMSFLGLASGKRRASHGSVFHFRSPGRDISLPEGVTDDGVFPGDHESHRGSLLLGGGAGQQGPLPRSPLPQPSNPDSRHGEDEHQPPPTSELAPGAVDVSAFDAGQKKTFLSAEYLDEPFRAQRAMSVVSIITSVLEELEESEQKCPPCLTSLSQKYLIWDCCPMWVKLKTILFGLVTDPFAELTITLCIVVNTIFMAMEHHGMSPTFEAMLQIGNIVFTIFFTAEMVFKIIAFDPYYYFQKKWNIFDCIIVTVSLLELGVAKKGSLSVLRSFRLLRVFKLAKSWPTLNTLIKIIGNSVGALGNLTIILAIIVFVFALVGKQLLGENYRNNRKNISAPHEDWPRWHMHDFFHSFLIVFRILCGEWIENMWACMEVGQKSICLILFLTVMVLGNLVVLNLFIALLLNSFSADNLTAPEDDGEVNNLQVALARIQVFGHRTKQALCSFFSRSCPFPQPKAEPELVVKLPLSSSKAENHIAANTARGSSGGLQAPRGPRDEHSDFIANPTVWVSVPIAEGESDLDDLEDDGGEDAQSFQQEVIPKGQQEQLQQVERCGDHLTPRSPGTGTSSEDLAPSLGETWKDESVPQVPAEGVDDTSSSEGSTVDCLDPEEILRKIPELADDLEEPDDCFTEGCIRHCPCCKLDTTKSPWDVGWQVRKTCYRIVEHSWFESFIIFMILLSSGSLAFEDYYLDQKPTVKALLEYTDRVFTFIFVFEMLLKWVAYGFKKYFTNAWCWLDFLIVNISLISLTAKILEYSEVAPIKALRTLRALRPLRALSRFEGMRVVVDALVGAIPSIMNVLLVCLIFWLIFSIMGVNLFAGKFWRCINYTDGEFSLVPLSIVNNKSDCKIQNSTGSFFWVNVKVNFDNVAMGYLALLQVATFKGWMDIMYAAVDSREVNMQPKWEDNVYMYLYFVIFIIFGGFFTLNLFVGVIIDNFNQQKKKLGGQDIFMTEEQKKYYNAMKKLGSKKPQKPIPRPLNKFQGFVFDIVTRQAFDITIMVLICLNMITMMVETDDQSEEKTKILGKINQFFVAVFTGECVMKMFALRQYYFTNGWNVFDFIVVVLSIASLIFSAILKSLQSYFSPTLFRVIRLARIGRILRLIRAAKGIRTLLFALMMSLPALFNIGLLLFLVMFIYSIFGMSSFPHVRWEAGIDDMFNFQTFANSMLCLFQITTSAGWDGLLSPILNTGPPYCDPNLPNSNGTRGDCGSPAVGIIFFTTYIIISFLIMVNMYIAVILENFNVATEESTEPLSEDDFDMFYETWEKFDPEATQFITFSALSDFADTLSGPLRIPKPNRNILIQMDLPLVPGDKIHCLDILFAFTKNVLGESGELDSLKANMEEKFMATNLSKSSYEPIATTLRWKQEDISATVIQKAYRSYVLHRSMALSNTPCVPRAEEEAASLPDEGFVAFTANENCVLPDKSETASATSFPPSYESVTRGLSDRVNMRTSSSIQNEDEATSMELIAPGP

Row | Structure (SMILES) | IC50 (recombinant human Nav1.7) [µM] | IC50 (hERG channel (Kv11.1)) [µM] | OA MPE ([1]; OA dose 10 mg/kg) [%] | SNL MPE [2] [%] | IC50 (recombinant human Nav1.8) [µM] | OA MPE ([1]; OA dose 30 mg/kg) [%]
1 | O=C(CC1CCCO1)N1C[C@@H]2CN(c3cccc4c3cnn4-c3ccccc3F)C(=O)[C@H]2C1 (relative stereo) [Example 10, rel-(3aR,6aR)-2-[1-(2-fluorophenyl)-1H-indazol-4-yl]-5-(tetrahydrofuran-2-ylacetyl)hexahydropyrrolo[3,4-c]pyrrol-1(2H)-one] | 2.07 | > 30 | 74 | 59 | – | –
2 | C[C@H](O)CC(=O)N1C[C@H]2CN(c3cccc4c3cnn4-c3ccccc3F)C(=O)[C@H]2C1 [Example 34, (3aS,6aR)-2-[1-(2-fluorophenyl)-1H-indazol-4-yl]-5-[(3S)-3-hydroxybutanoyl]hexahydropyrrolo[3,4-c]pyrrol-1(2H)-one] | 9.91 | > 30 | – | 60 | 8.36 | 85
3 | CC(C)(O)CC(=O)N1C[C@H]2CN(c3cccc4c3cnn4-c3ccccc3F)C(=O)[C@H]2C1 [Example 35, (3aS,6aR)-2-[1-(2-fluorophenyl)-1H-indazol-4-yl]-5-(3-hydroxy-3-methylbutanoyl)hexahydropyrrolo[3,4-c]pyrrol-1(2H)-one] | – | – | – | 40 | – | 99
